From patent US20200187502A1, “MICROBIOCIDAL OXADIAZOLE DERIVATIVES” (SYNGENTA PARTICIPATIONS AG, priority 2017, published 2020)

What was measured:
[1] = tested on: Puccinia recondita f. Sp. Tritici; experiment: Fungicidal activity, wheat leaf disc curative (brown rust); type: in vivo; conditions: foliar, 200 ppm in the applied formulation, wheat leaf segments cv. Kanzler, curative (applied 1 day after inoculation), compared to untreated control, 6 to 8 days after application, read-out: disease control
Outline: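 Compounds, prepared from DMSO solutions of at most 10 mg/ml and diluted just before spraying, are applied curatively to inoculated Kanzler wheat leaf segments. Segments are incubated at 19° C and 75% RH in a climate cabinet; disease control relative to untreated is evaluated 6 to 8 days later.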

[2] = tested on: Glomerella lacenarium (Colletotrichum lacenarium); experiment: Fungicidal activity, liquid culture, cucumber preventative (anthracnose); type: cell-based; conditions: 20 ppm in the applied formulation, liquid culture in PDB, inhibition of growth measured photometrically 3 to 4 days after application, compared to untreated control, read-out: disease control
Outline: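 Spore-based broth assay: conidia mixed into PDB meet compound from a DMSO solution in 96-well format, incubate at 24° C., then inhibition of growth is determined by photometry 3–4 days later relative to the untreated check.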

[3] = tested on: Puccinia recondita f. Sp. Tritici; experiment: Fungicidal activity, wheat leaf disc preventative (brown rust); type: in vivo; conditions: foliar, 200 ppm in the applied formulation, wheat leaf segments cv. Kanzler, compared to untreated control, 7 to 9 days after application, read-out: disease control
Outline: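 Preventative leaf-segment test: spray application of diluted formulated compound on wheat cv. Kanzler, spore inoculation after 1 day. Percent control relative to untreated segments rated 7 to 9 days post-application, with incubation at 19° C, 75% relative humidity, 12 h photoperiod.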

CC(C)N(Cc1ccc(-c2noc(C(F)(F)F)n2)s1)C(=O)N(C)CC#N [Compound 4.82, 1-(cyanomethyl)-3-isopropyl-1-methyl-3-[[5-[5-(trifluoromethyl)-1,2,4-oxadiazol-3-yl]-2-thienyl]methyl]urea]
≥ 80%: pest or weed control at 200 ppm [1] | inhibition of growth at 20 ppm [2] | pest or weed control at 200 ppm [3]

COCCNC(=O)N(Cc1ccc(-c2noc(C(F)(F)F)n2)s1)C(C)C [Compound 4.84, 1-isopropyl-3-(2-methoxyethyl)-1-[[5-[5-(trifluoromethyl)-1,2,4-oxadiazol-3-yl]-2-thienyl]methyl]urea]
≥ 80%: pest or weed control at 200 ppm [1] | inhibition of growth at 20 ppm [2] | pest or weed control at 200 ppm [3]

CN(CC#N)C(=O)N(Cc1ccc(-c2noc(C(F)(F)F)n2)s1)C1CC1 [Compound 4.86, 1-(cyanomethyl)-3-cyclopropyl-1-methyl-3-[[5-[5-(trifluoromethyl)-1,2,4-oxadiazol-3-yl]-2-thienyl]methyl]urea]
≥ 80%: pest or weed control at 200 ppm [1] | inhibition of growth at 20 ppm [2] | pest or weed control at 200 ppm [3]

CCN(CC)C(=O)N(Cc1ccc(-c2noc(C(F)(F)F)n2)s1)C1CC1 [Compound 4.90, 1-cyclopropyl-3,3-diethyl-1-[[5-[5-(trifluoromethyl)-1,2,4-oxadiazol-3-yl]-2-thienyl]methyl]urea]
≥ 80%: pest or weed control at 200 ppm [1] | inhibition of growth at 20 ppm [2] | pest or weed control at 200 ppm [3]

COCCN(CCOC)C(=O)N(Cc1ccc(-c2noc(C(F)(F)F)n2)s1)C1CC1 [Compound 4.91, 1-cyclopropyl-3,3-bis(2-methoxyethyl)-1-[[5-[5-(trifluoromethyl)-1,2,4-oxadiazol-3-yl]-2-thienyl]methyl]urea]
≥ 80%: pest or weed control at 200 ppm [1] | inhibition of growth at 20 ppm [2] | pest or weed control at 200 ppm [3]

O=C(C1CC1)N(Cc1ccc(-c2noc(C(F)(F)F)n2)s1)OCC(F)F [Compound 5.7, N-(2,2-difluoroethoxy)-N-[[5-[5-(trifluoromethyl)-1,2,4-oxadiazol-3-yl]-2-thienyl]methyl]cyclopropanecarboxamide]
≥ 80%: pest or weed control at 200 ppm [1] | inhibition of growth at 20 ppm [2] | pest or weed control at 200 ppm [3]

CCN(Cc1ccc(-c2noc(C(F)(F)F)n2)s1)C(=O)CC1CC1 [Compound 5.9, 2-cyclopropyl-N-ethyl-N-[[5-[5-(trifluoromethyl)-1,2,4-oxadiazol-3-yl]-2-thienyl]methyl]acetamide]
≥ 80%: pest or weed control at 200 ppm [1] | inhibition of growth at 20 ppm [2] | pest or weed control at 200 ppm [3]

CCN(Cc1ccc(-c2noc(C(F)(F)F)n2)s1)C(=O)C1CCOC1 (stereo not drawn) [Compound 5.10, N-ethyl-N-[[5-[5-(trifluoromethyl)-1,2,4-oxadiazol-3-yl]-2-thienyl]methyl]tetrahydrofuran-3-carboxamide]
≥ 80%: pest or weed control at 200 ppm [1] | inhibition of growth at 20 ppm [2] | pest or weed control at 200 ppm [3]

CCN(Cc1ccc(-c2noc(C(F)(F)F)n2)s1)C(=O)C1CCC1 [Compound 5.11, N-ethyl-N-[[5-[5-(trifluoromethyl)-1,2,4-oxadiazol-3-yl]-2-thienyl]methyl]cyclobutanecarboxamide]
≥ 80%: pest or weed control at 200 ppm [1] | inhibition of growth at 20 ppm [2] | pest or weed control at 200 ppm [3]

CCN(Cc1ccc(-c2noc(C(F)(F)F)n2)s1)C(=O)C1(C)CC1 [Compound 5.12, N-ethyl-1-methyl-N-[[5-[5-(trifluoromethyl)-1,2,4-oxadiazol-3-yl]-2-thienyl]methyl]cyclopropanecarboxamide]
≥ 80%: pest or weed control at 200 ppm [1] | inhibition of growth at 20 ppm [2] | pest or weed control at 200 ppm [3]

CCN(Cc1ccc(-c2noc(C(F)(F)F)n2)s1)C(=O)C1CCCO1 (stereo not drawn) [Compound 5.13, N-ethyl-N-[[5-[5-(trifluoromethyl)-1,2,4-oxadiazol-3-yl]-2-thienyl]methyl]tetrahydrofuran-2-carboxamide]
≥ 80%: pest or weed control at 200 ppm [1] | inhibition of growth at 20 ppm [2] | pest or weed control at 200 ppm [3]

CN(Cc1ccc(-c2noc(C(F)(F)F)n2)s1)C(=O)C1CCCO1 (stereo not drawn) [Compound 5.22, N-methyl-N-[[5-[5-(trifluoromethyl)-1,2,4-oxadiazol-3-yl]-2-thienyl]methyl]tetrahydrofuran-2-carboxamide]
≥ 80%: pest or weed control at 200 ppm [1] | inhibition of growth at 20 ppm [2] | pest or weed control at 200 ppm [3]

CN(Cc1ccc(-c2noc(C(F)(F)F)n2)s1)C(=O)C1(C)COC1 [Compound 5.23, N,3-dimethyl-N-[[5-[5-(trifluoromethyl)-1,2,4-oxadiazol-3-yl]-2-thienyl]methyl]oxetane-3-carboxamide]
≥ 80%: pest or weed control at 200 ppm [1] | inhibition of growth at 20 ppm [2] | pest or weed control at 200 ppm [3]

CC(C)N(Cc1ccc(-c2noc(C(F)(F)F)n2)s1)C(=O)C1CCOC1 (stereo not drawn) [Compound 5.28, N-isopropyl-N-[[5-[5-(trifluoromethyl)-1,2,4-oxadiazol-3-yl]-2-thienyl]methyl]tetrahydrofuran-3-carboxamide]
≥ 80%: pest or weed control at 200 ppm [1] | inhibition of growth at 20 ppm [2] | pest or weed control at 200 ppm [3]

CC(C)N(Cc1ccc(-c2noc(C(F)(F)F)n2)s1)C(=O)C1(C)COC1 [Compound 5.32, N-isopropyl-3-methyl-N-[[5-[5-(trifluoromethyl)-1,2,4-oxadiazol-3-yl]-2-thienyl]methyl]oxetane-3-carboxamide]
≥ 80%: pest or weed control at 200 ppm [1] | inhibition of growth at 20 ppm [2] | pest or weed control at 200 ppm [3]

O=C(C1CCOC1)N(Cc1ccc(-c2noc(C(F)(F)F)n2)s1)C1CC1 (stereo not drawn) [Compound 5.37, N-cyclopropyl-N-[[5-[5-(trifluoromethyl)-1,2,4-oxadiazol-3-yl]-2-thienyl]methyl]tetrahydrofuran-3-carboxamide]
≥ 80%: pest or weed control at 200 ppm [1] | inhibition of growth at 20 ppm [2] | pest or weed control at 200 ppm [3]

CC1(C(=O)N(Cc2ccc(-c3noc(C(F)(F)F)n3)s2)C2CC2)CC1 [Compound 5.39, N-cyclopropyl-1-methyl-N-[[5-[5-(trifluoromethyl)-1,2,4-oxadiazol-3-yl]-2-thienyl]methyl]cyclopropanecarboxamide]
≥ 80%: pest or weed control at 200 ppm [1] | inhibition of growth at 20 ppm [2] | pest or weed control at 200 ppm [3]

O=C(C1CCCO1)N(Cc1ccc(-c2noc(C(F)(F)F)n2)s1)C1CC1 (stereo not drawn) [Compound 5.40, N-cyclopropyl-N-[[5-[5-(trifluoromethyl)-1,2,4-oxadiazol-3-yl]-2-thienyl]methyl]tetrahydrofuran-2-carboxamide]
≥ 80%: pest or weed control at 200 ppm [1] | inhibition of growth at 20 ppm [2] | pest or weed control at 200 ppm [3]

CC1(C(=O)N(Cc2ccc(-c3noc(C(F)(F)F)n3)s2)C2CC2)COC1 [Compound 5.41, N-cyclopropyl-3-methyl-N-[[5-[5-(trifluoromethyl)-1,2,4-oxadiazol-3-yl]-2-thienyl]methyl]oxetane-3-carboxamide]
≥ 80%: pest or weed control at 200 ppm [1] | inhibition of growth at 20 ppm [2] | pest or weed control at 200 ppm [3]

O=C(C1CC1(F)F)N(Cc1ccc(-c2noc(C(F)(F)F)n2)s1)C1CC1 (stereo not drawn) [Compound 5.42, N-cyclopropyl-2,2-difluoro-N-[[5-[5-(trifluoromethyl)-1,2,4-oxadiazol-3-yl]-2-thienyl]methyl]cyclopropanecarboxamide]
≥ 80%: pest or weed control at 200 ppm [1] | inhibition of growth at 20 ppm [2] | pest or weed control at 200 ppm [3]

CC1CC1C(=O)N(Cc1ccc(-c2noc(C(F)(F)F)n2)s1)C1CC1 (stereo not drawn) [Compound 5.43, N-cyclopropyl-2-methyl-N-[[5-[5-(trifluoromethyl)-1,2,4-oxadiazol-3-yl]-2-thienyl]methyl]cyclopropanecarboxamide]
≥ 80%: pest or weed control at 200 ppm [1] | inhibition of growth at 20 ppm [2] | pest or weed control at 200 ppm [3]

CC1CC1C(=O)N(Cc1ccc(-c2noc(C(F)(F)F)n2)s1)OCC(F)F (stereo not drawn) [Compound 5.50, N-(2,2-difluoroethoxy)-2-methyl-N-[[5-[5-(trifluoromethyl)-1,2,4-oxadiazol-3-yl]-2-thienyl]methyl]cyclopropanecarboxamide]
≥ 80%: pest or weed control at 200 ppm [1] | inhibition of growth at 20 ppm [2] | pest or weed control at 200 ppm [3]

CCN(Cc1ccc(-c2noc(C(F)(F)F)n2)s1)C(=O)N(CC(F)F)C1CC1 [Compound 5.51, 1-cyclopropyl-1-(2,2-difluoroethyl)-3-ethyl-3-[[5-[5-(trifluoromethyl)-1,2,4-oxadiazol-3-yl]-2-thienyl]methyl]urea]
≥ 80%: pest or weed control at 200 ppm [1] | inhibition of growth at 20 ppm [2] | pest or weed control at 200 ppm [3]
